Read-outs that look alike come from different tables or passages of the source.
Columns and labels:
[1] = molecular target: T1, human 5-HT1A receptor subtype (Homo sapiens, UniProt P08908); test: 5-HT1A receptor binding assay with [3H]8-OH-DPAT on CHO cell membranes; conditions: [3H]8-OH-DPAT 1.5 nM
T1 construct: expressed in transfected cells
T1 sequence (P08908 1-422): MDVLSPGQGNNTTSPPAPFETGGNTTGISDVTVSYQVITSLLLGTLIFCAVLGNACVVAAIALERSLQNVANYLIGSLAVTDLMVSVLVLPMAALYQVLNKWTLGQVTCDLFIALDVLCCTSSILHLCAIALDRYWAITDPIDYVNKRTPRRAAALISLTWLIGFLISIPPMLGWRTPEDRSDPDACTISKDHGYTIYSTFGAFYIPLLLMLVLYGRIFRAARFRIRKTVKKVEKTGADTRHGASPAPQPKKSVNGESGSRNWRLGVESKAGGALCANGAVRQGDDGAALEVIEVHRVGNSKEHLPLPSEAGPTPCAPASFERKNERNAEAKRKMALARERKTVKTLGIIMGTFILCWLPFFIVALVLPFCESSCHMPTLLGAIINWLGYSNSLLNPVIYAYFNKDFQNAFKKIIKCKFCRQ
Experimental: (§1) The PCR cloning of the human 5-HT1A receptor subtype from a human genomic library has been described previously Chanda et al., Mol. Pharmacol., 43:516 (1993). A stable Chinese hamster ovary cell line expressing the human 5-HT1A receptor subtype (5-HT1A.CHO cells) was employed throughout this study. Cells were maintained in DMEM supplemented with 10% foetal calf serum, non-essential amino acids and penicillin/ streptomycin.
Cells were grown to 95-100% confluency as a monolayer before membranes were harvested for binding studies. Cells were gently scraped from the culture plates, transferred to centrifuge tubes, and washed twice by centrifugation (2000 rpm for 10 min., 4°C) in buffer (50 mM Tris; pH 7.5). The resulting pellets were aliquoted and placed at -80°C. On the day of assay, the cells were thawed on ice, and resuspended in buffer. Studies were conducted using [^3H]8-OH-DPAT as the radioligand. The binding assay was performed in 96 well microtiter plates in a final total volume of 250 µL of buffer. Competition experiments were performed by using 7 concentrations of unlabelled drug and a final ligand concentration of 1.5 nM. Nonspecific binding was determined in the presence of 10 µM 5HT. Saturation analysis was conducted by using [^3H]8-OH-DPAT at concentrations ranging from 0.3-30 nM. Following a 30 minute incubation at room temperature, the reaction was terminated by the addition of ice cold buffer and rapid filtration using a M-96 Brandel Cell Harvester (Gaithersburg, MD) through a GF/B filter presoaked for 30 minutes in 0.5% polyethyleneimine.

serotonin transporter = molecular target: T2, serotonin transporter (Rattus norvegicus, UniProt P31652); test: Serotonin transporter affinity, 3H-paroxetine binding to frontal cortical membranes; set-up: species or system male Sprague-Dawley rats
T2 construct: from tissue; host or cells: frontal cortex of male Sprague-Dawley rats
T2 sequence (P31652 whole entry): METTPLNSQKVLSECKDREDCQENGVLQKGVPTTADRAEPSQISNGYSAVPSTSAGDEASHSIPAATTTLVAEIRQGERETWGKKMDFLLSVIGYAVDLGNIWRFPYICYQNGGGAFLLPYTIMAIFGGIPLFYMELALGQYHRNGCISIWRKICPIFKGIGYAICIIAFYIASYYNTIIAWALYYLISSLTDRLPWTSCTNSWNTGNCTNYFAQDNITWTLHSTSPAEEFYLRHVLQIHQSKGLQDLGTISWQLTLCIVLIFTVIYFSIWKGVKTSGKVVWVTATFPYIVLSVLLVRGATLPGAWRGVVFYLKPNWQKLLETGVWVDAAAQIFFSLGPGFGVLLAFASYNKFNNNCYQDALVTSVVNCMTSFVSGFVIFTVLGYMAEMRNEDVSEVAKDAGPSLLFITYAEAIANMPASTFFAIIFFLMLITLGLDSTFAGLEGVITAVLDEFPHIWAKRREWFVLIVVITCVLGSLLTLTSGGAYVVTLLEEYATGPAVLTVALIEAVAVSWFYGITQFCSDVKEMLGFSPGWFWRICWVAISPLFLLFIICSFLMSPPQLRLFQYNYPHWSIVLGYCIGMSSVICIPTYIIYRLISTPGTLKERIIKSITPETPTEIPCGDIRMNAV
Experimental: Briefly, frontal cortical membranes prepared from male Sprague-Dawley rats were incubated with ^3H-paroxetine (0.1 nM) for 60 minutes at 25°C. […] All reactions are terminated by the addition of ice cold Tris buffer followed by rapid filtration using a Tom Tech filtration device to separate bound from free ^3H-paroxetine.

[2] = molecular target: T3, 5-HT1A cloned receptor membrane fragments (Homo sapiens, UniProt P08908); test: [35S]-GTPγS binding assay; type: biochemical; conditions: value in brackets, or a lone % in the cell; maximum agonist response defined by excess 8-OH-DPAT; read-out: GTPγS (%EMax)
T3 construct: expressed in transfected cells
T3 sequence (P08908 1-422): T1 sequence (P08908 1-422)
Experimental: The [^35S]-GTPγS binding assay was similar to that used by Lazareno and Birdsall, Br. J. Pharmacol. 109:1120 (1993). Briefly, 5-HT1A cloned receptor membrane fragments (as used for 5-HT1A receptor binding assays) were stored at -70°C until needed. When needed, membranes were rapidly thawed, centrifuged at 40,000 x g for 10 minutes and resuspended at 4 °C for 10 minutes in assay buffer (25 mM HEPES, 3 mM MgCl2, 100 mM NaCl, 1 mM EDTA, 10 uM GDP, […], pH 8.0). These membranes were then incubated for 30 minutes at 30°C with [^35S]GTPgS (1 nM) in the presence of vehicle, test compound (one to eight concentrations), or excess 8-OH-DPAT to define maximum agonist response. All reactions are terminated by the addition of ice cold Tris buffer followed by rapid filtration using a Tom Tech® filtration device to separate bound from free [^35S]GTPgS. Agonists produce an increase in the amount of [^35S]GTPgS bound whereas antagonists produce no increase in binding. Bound radioactivity was counted and analyzed as above.

[3] = molecular target: T4, human 5-HT1A receptor subtype (5-HT1A.CHO cells) (Homo sapiens, UniProt P08908); test: cAMP formation in forskolin-treated cells (cAMP SPA assay); type: cell-based; conditions: value in brackets; forskolin 1 uM
T4 construct: expressed in transfected cells
T4 sequence (P08908 1-422): T1 sequence (P08908 1-422)
Experimental: as §1
The following assays were performed by incubating the cells with DMEM containing 25 mM HEPES, 5 mM theophylline and 10 µM pargyline for a period of 20 minutes at 37°C. Functional activity was assessed by treating the cells with forskolin (1 uM final concentration) followed immediately by test compound (6 concentrations) for an additional 10 minutes at 37°C. In separate experiments, 6 concentrations of antagonist were preincubated for 20 minutes prior to the addition of 10 nM 8-OH-DPAT and forskolin. The reaction was terminated by removal of the media and addition of 0.5 ml ice cold assay buffer. Plates were stored at -20°C prior to assessment of cAMP formation by a cAMP SPA assay (Amersham).

[4] = 3H-paroxetine 0.1 nM, rat frontal cortical membranes, read-out: ST (Kj, nM,)

Ki [1] | Ki (serotonin transporter; [4]) | Emax [2] | Emax [3] | SMILES | Ki (serotonin transporter)
326 nM | 28 nM | 53% | 80% | Clc1ccc2[nH]cc([C@H]3CC[C@@H](N4CCN(c5cccc6[nH]ccc56)CC4)CC3)c2c1 [Example 6a, 5-Chloro-3-[cis-4-[4-(1H-indol-4-yl)-1-piperazinyl]cyclohexyl]-1H-indole] | –
– | 40 nM | – | – | Cn1ccc2c(N3CCN([C@H]4CC[C@@H](c5cn(C)c6cc(F)ccc65)CC4)CC3)cccc21 [Example 11, 6-Fluoro-1-methyl-3-{cis-4-[4-(1-methyl-1H-indol-4-yl)-1-piperazinyl]cyclohexyl}-1H-indole] | –
80.7 nM | 4.96 nM | 0% | 0% | COc1ccc(F)cc1N1CCN([C@H]2CC[C@@H](c3c[nH]c4ccc(F)cc43)CC2)CC1 [Example 22a, 5-Fluoro-3-{(cis)-4-[4-(5-fluoro-2-methoxy-phenyl)-piperazin-1-yl]-cyclohexyl}-1H-indole] | –
11.6 nM | 36.5 nM | 4.5% | 0% | COc1ccc(F)cc1N1CCN([C@H]2CC[C@H](c3c[nH]c4ccc(F)cc43)CC2)CC1 [Example 22b, 5-Fluoro-3-{(trans)-4-[4-(5-fluoro-2-methoxy-phenyl)-piperazin-1-yl]-cyclohexyl}-1H-indole] | –
70.1 nM | 91 nM | – | – | COc1ccccc1N1CCN(C2CC=C(c3c[nH]c4ccc(F)cc34)CC2)CC1 (stereo not drawn) [Example 35, 5-Fluoro-3-{4-[4-(2-methoxy-phenyl)-piperazin-1-yl]cyclohex-1-enyl}-1H-indole] | –
12.3 nM | 28 nM | 53% | 80% | N#Cc1ccc2[nH]cc(C3=CCC(N4CCN(c5cccc6[nH]ccc56)CC4)CC3)c2c1 (stereo not drawn) [Example 36, 3-{4-[4-(1H-Indol-4-yl)-piperazin-1-yl]-cyclohex-1-enyl}-1H-indole-5-carbonitrile] | –
– | – | – | – | Cn1cc([C@H]2CC[C@@H](N3CCN(c4cccc5[nH]ccc45)CC3)CC2)c2cc(F)ccc21 [Example 38, 5-Fluoro-3-{cis-4-[4-(1H-indol-4-yl)-piperazinyl]-cyclohexyl}-1-methyl-1H-indole] | 7.22 nM

SMILES | Ki [1] | Ki (serotonin transporter; [4]) | Emax [2] | Emax [3] | Ki (serotonin transporter)
COc1ccccc1N1CCN([C@H]2CC[C@@H](c3c[nH]c4ccc(F)cc43)CC2)CC1 [Example 18, 5-Fluoro-3-{(cis)-4-[4-(2-methoxy-phenyl)-piperazin-1-yl] -cyclohexyl}-1H-indole] | 129 nM | 1.36 nM | – | – | –
Fc1cc2c(c(N3CCN([C@H]4CC[C@@H](c5c[nH]c6ccc(F)cc65)CC4)CC3)c1)OCCC2 [Example 31a, 5-Fluoro-3-{(1,4-cis)-4-[4-(6-fluoro-chroman-8-yl)-piperazin-1-yl]-cyclohexyl}-1H-indole] | 142 nM | – | – | – | 13 nM
